# Values quoted from earlier work, collected in patent US20240032557A1, “AN IRON FORTIFIED TEA COMPOSITION” (Ekaterra Tea Manufacturing USA LLC, priority 2020, published 2024).
# Conditions: water at 25° C.
structure (smiles),measurement,value
O=C([O-])/C=C/C(=O)[O-].[Fe+2] [ferrous fumarate],solubility,0.14 g/100 g water
